Test results published in patent publication US4784955A, “Immunogen conjugates and the use thereof in a dihydropyridine assay” (Miles Inc., priority 1986, dated 1988).
Like-named read-outs stand apart in the source and are kept apart here. Each block holds one molecule with its values, some of them ahead of it.

Assays:
[1] = test system: monoclonal antibody XIIIE82 /H8; assay: Binding of radioactive Ca2+ channel blockers to monoclonal antibody XIIIE82 /H8-Sepharose 6MB beads; parameters: species or system mouse; conditions: for ability to bind to monoclonal antibody XIIIE82 /H8-Sepharose 6MB beads (in words): 1.0 nM concentration; for CPM Bound / fmoles of Ca2+ channel blocker specifically bound per μg of monoclonal antibody XIIIE82 /H8: [3H]calcium channel blocker 1.0 nM
Procedure: Various radioactive Ca^2+ channel blockers at a 1.0 nM concentration were tested for their ability to bind to monoclonal antibody XIIIE82 /H8-Sepharose 6MB beads.

[2] = test system: monoclonal antibody XH42 /G1
[3] = test system: 1,4-dihydropyridine-specific antibodies; assay: 1,4-Dihydropyridine radioimmunoassay (dextran-coated charcoal separation), nitrendipine standard curve; format: binding; conditions: 20 pM [3H]nitrendipine; for % B/Bo: 60 min
Procedure: After a 1 hour incubation in the dark at room temperature, the assay tubes were transferred to an ice water bath for 10 min. […] After an additional 12 minutes in the ice bath, the assay tubes were centrifuged for 15 minutes at 850×g in a Beckman TJ-6 centrifuge. A 0.80 ml sample of the clear supernatant was then added to 10 ml of liquid scintillation fluid and counted in a Beckman LS8100 liquid scintillation counter. […] An alternate procedure for the RIA on human plasma samples involves the dilutions of standards in normal pooled human plasma (rather than in bovine serum albumin in saline, as described above) and the use of 0.2 ml aliquots of standard or human plasma samples.

[4] = target: XH42 /Gl monoclonal antibody; assay: Competitive binding assay according to the method of Muller, XH42 /Gl; parameters: species or system mouse; conditions: [3H]nitrendipine-XH42 /Gl monoclonal antibody complex; read-out: average apparent dissociation constant (kd)
[5] = target: XIIIE82 /H8-monoclonal antibody; assay: Competitive binding assay according to the method of Muller, XIIIE82 /H8; parameters: species or system mouse; conditions: [3H]nitrendipine-XIIIE82 /H8-monoclonal antibody complex; read-out: average apparent dissociation constant (Kd)
[6] = test system: monoclonal antibody XIIIE82 /H8; assay: Nifedipine radioimmunoassay using monoclonal antibody XIIIE82 /H8-Sepharose 6MB beads; conditions: 100 pM [3H]nitrendipine
[7] = test system: polyclonal antibodies prepared against the immunogen conjugates; assay: Cross-reactivity with polyclonal antibodies prepared against the immunogen conjugates; format: binding
[8] = test system: New Zealand white rabbits; conditions: immunized rabbits
[9] = nitrendipine standard 0.4 nanograms/ml in final assay mixture
[10] = nitrendipine standard 1.1 nanograms/ml
[11] = nitrendipine standard 1.8 nanograms/ml
[12] = nitrendipine standard 3.7 nanograms/ml
[13] = nitrendipine standard 11.0 nanograms/ml
[14] = nitrendipine standard 18.3 nanograms/ml
[15] = nitrendipine standard 37.4 nanograms/ml
[16] = nitrendipine standard 18.0 picograms/ml in final assay mixture
[17] = nitrendipine standard 36.0 picograms/ml
[18] = nitrendipine standard 72.0 picograms/ml
[19] = nitrendipine standard 180.0 picograms/ml
[20] = nitrendipine standard 360.0 picograms/ml
[21] = nitrendipine standard 720.0 picograms/ml
[22] = nitrendipine standard 1800.0 picograms/ml
[23] = nifedipine standard 3.7 nanograms/ml in final assay mixture
[24] = nifedipine standard 11.2 nanograms/ml
[25] = nifedipine standard 18.7 nanograms/ml
[26] = nifedipine standard 37.3 nanograms/ml
[27] = nifedipine standard 112.0 nanograms/ml
[28] = nifedipine standard 186.7 nanograms/ml
[29] = nifedipine standard 373.4 nanograms/ml
[30] = nifedipine standard 1866.8 nanograms/ml

- ability to bind to monoclonal antibody XIIIE82 /H8-Sepharose 6MB beads (in words) [1]: did not bind
- CPM Bound [1]: 225 CPM
- fmoles of Ca2+ channel blocker specifically bound per μg of monoclonal antibody XIIIE82 /H8 [1]: 0.1 fmol/µg
Molecule: COc1ccc([C@@H]2Sc3ccccc3N(CCN(C)C)C(=O)[C@@H]2OC(C)=O)cc1 [[^3 H]Diltiazem]

Molecule: CCOC(=O)C1=C(C)NC(C)=C(C(=O)OC)C1c1cccc([N+](=O)[O-])c1 (centres unmarked) [Nitrendipine, 2,6-dimethyl-3-carboethoxy-5-carbomethoxy-4-(3-nitrophenyl)-1,4-dihydropyridine]
- % B/Bo [2, 9]: 107.1%
- Net CPM [2, 9]: 2043 CPM
- % B/Bo [2, 10]: 87.8%
- Net CPM [2, 10]: 1676 CPM
- % B/Bo [2, 11]: 76.3%
- Net CPM [2, 11]: 1456 CPM
- % B/Bo [2, 12]: 60.2%
- Net CPM [2, 12]: 1149 CPM
- % B/Bo [2, 13]: 37.6%
- Net CPM [2, 13]: 717 CPM
- % B/Bo [2, 14]: 28.1%
- Net CPM [2, 14]: 535 CPM
- % B/Bo [2, 15]: 17.5%
- Net CPM [2, 15]: 333 CPM
- Net CPM [3, 16]: 1492 CPM
- % B/Bo [3, 16]: 85.4%
- Net CPM [3, 17]: 1406 CPM
- % B/Bo [3, 17]: 80.5%
- Net CPM [3, 18]: 1024 CPM
- % B/Bo [3, 18]: 58.6%
- Net CPM [3, 19]: 673 CPM
- % B/Bo [3, 19]: 38.5%
- Net CPM [3, 20]: 482 CPM
- % B/Bo [3, 20]: 27.6%
- Net CPM [3, 21]: 346 CPM
- % B/Bo [3, 21]: 19.8%
- Net CPM [3, 22]: 225 CPM
- % B/Bo [3, 22]: 12.9%

Molecule: COC(=O)C1=C(C)NC(C)=C(C(=O)OC)C1c1ccccc1N=C=S [[^3 H]Nifedipine-Analog, 1,4-dihydro-2,6-dimethyl-4-(2-isothiocyanatophenyl)-3,5-pyridinedicarboxylic acid dimethyl ester]
- ability to bind to monoclonal antibody XIIIE82 /H8-Sepharose 6MB beads (in words) [1]: specifically bind
- CPM Bound [1]: 26000 CPM
- fmoles of Ca2+ channel blocker specifically bound per μg of monoclonal antibody XIIIE82 /H8 [1]: 18.8 fmol/µg

- ability to bind to monoclonal antibody XIIIE82 /H8-Sepharose 6MB beads (in words) [1]: specifically bind
- CPM Bound [1]: 57439 CPM
- fmoles of Ca2+ channel blocker specifically bound per μg of monoclonal antibody XIIIE82 /H8 [1]: 20.9 fmol/µg
Molecule: COCCOC(=O)C1=C(C)NC(C)=C(C(=O)OC(C)C)C1c1cccc([N+](=O)[O-])c1 (centres unmarked) [[^3 H]Nimodipine]

- ability to bind to monoclonal antibody XIIIE82 /H8-Sepharose 6MB beads (in words) [1]: specifically bind
- CPM Bound [1]: 59103 CPM
- fmoles of Ca2+ channel blocker specifically bound per μg of monoclonal antibody XIIIE82 /H8 [1]: 33.8 fmol/µg
- Kd [4]: 12.5 nM
- Kd [5]: 26 nM
Molecule: CCOC(=O)C1=C(C)NC(C)=C(C(=O)OC)C1c1cccc([N+](=O)[O-])c1 (centres unmarked) [[^3 H]Nitrendipine, 2,6-dimethyl-3-carboethoxy-5-carbomethoxy-4-(3-nitrophenyl)-1,4-dihydropyridine]

- ability to bind to monoclonal antibody XIIIE82 /H8-Sepharose 6MB beads (in words) [1]: specifically bind
- CPM Bound [1]: 9419 CPM
- fmoles of Ca2+ channel blocker specifically bound per μg of monoclonal antibody XIIIE82 /H8 [1]: 4.8 fmol/µg
Molecule: COC(=O)C1=C(C)NC(C)=C(C(=O)OC(C)C)C1c1cccc2nonc12 (single isomer, unassigned) [[^3 H]PN200-110]

Molecule: COc1ccc(CCN(C)CCCC(C#N)(c2ccc(OC)c(OC)c2)C(C)C)cc1OC (centres unmarked) [[^3 H]Verapamil]
- ability to bind to monoclonal antibody XIIIE82 /H8-Sepharose 6MB beads (in words) [1]: did not bind
- CPM Bound [1]: 234 CPM
- fmoles of Ca2+ channel blocker specifically bound per μg of monoclonal antibody XIIIE82 /H8 [1]: 0.2 fmol/µg

Molecule: COC(=O)C1=C(C)NC(C)=C(C(=O)OC)C1c1ccccc1[N+](=O)[O-] [Nifedipine]
- % B/Bo [6, 23]: 102.0%
- Net CPM [6, 23]: 8010 CPM
- % B/Bo [6, 24]: 98.2%
- Net CPM [6, 24]: 7708 CPM
- % B/Bo [6, 25]: 76.7%
- Net CPM [6, 25]: 6027 CPM
- % B/Bo [6, 26]: 50.9%
- Net CPM [6, 26]: 3998 CPM
- % B/Bo [6, 27]: 23.4%
- Net CPM [6, 27]: 1837 CPM
- % B/Bo [6, 28]: 14.5%
- Net CPM [6, 28]: 1138 CPM
- % B/Bo [6, 29]: 8.6%
- Net CPM [6, 29]: 677 CPM
- % B/Bo [6, 30]: 2.4%
- Net CPM [6, 30]: 190 CPM

Molecule: COc1ccc(CCN(C)CCCC(C#N)(c2ccc(OC)c(OC)c2)C(C)C)cc1OC (centres unmarked) [verapamil]
- cross-reaction with the antibodies [7]: do not cross-react

Molecule: COc1ccc([C@@H]2Sc3ccccc3N(CCN(C)C)C(=O)[C@@H]2OC(C)=O)cc1 [diltiazem]
- cross-reaction with the antibodies [7]: do not cross-react

Molecule: Keyhole limpet hemocyanin
- time to antibody response [8]: 4 weeks
- titer of antiserum of 1,4-dihydropyridine-specific antibodies [8]: highest titer
